Source: patent US9944602B2, “Piperidinone herbicides” (E. I. DU PONT DE NEMOURS AND COMPANY, priority 2014, dated 2018)

Assays:
Format in all cases: in vivo
[1] = test system: kochia (Kochia scoparia); assay: Test A preemergence kochia; conditions: 0 to 100 scale, 0 no effect, 100 complete control
Excerpt: (§1) Seeds of plant species selected from barnyardgrass (Echinochloa crus-galli), kochia (Kochia scoparia), ragweed (common ragweed, Ambrosia elatior), ryegrass, Italian (Italian ryegrass, Lolium multiflorum), crabgrass, large (large crabgrass, Digitaria sanguinalis), foxtail, giant (giant foxtail, Setaria faberii), morningglory (Ipomoea spp.), pigweed (Amaranthus retroflexus), velvetleaf (Abutilon theophrasti), wheat (Triticum aestivum), and corn (Zea mays) were planted into a blend of loam soil and sand and treated preemergence with a directed soil spray using test chemicals formulated in a non-phytotoxic solvent mixture which included a surfactant.
(§2) At the same time, plants selected from these crop and weed species and also blackgrass (Alopecurus myosuroides), and galium (catchweed bedstraw, Galium aparine) were planted in pots containing the same blend of loam soil and sand and treated with postemergence applications of test chemicals formulated in the same manner. Plants ranged in height from 2 to 10 cm and were in the one- to two-leaf stage for the postemergence treatment. Treated plants and untreated controls were maintained in a greenhouse for approximately 10 d, after which time all treated plants were compared to untreated controls and visually evaluated for injury. Plant response ratings, summarized in Table A, are based on a 0 to 100 scale where 0 is no effect and 100 is complete control. A dash (-) response means no test result.

[2] = test system: wheat (Triticum aestivum); assay: Test A postemergence wheat; conditions: 0 to 100 scale, 0 is no effect, 100 is complete control
Excerpt: as §1, §2

[3] = test system: ryegrass, Italian (Italian ryegrass, Lolium multiflorum); assay: Test A postemergence ryegrass, Italian; conditions: 0 to 100 scale, 0 is no effect, 100 is complete control
Excerpt: as §1, §2

[4] = test system: rice (Oryza sativa); assay: Test B flooded paddy test rice; conditions: Table B, Flood, scale 0 to 100
Method: (§3) Plant species in the flooded paddy test selected from rice (Oryza sativa), sedge, umbrella (small-flower umbrella sedge, Cyperus difformis), ducksalad (Heteranthera limosa), and barnyardgrass (Echinochloa crus-galli) were grown to the 2-leaf stage for testing. At the time of treatment, test pots were flooded to 3 cm above the soil surface, treated by application of test compounds directly to the paddy water, and then maintained at that water depth for the duration of the test. Treated plants and controls were maintained in a greenhouse for 13 to 15 d, after which time all species were compared to controls and visually evaluated. […] A dash (-) response means no test result.

[5] = test system: galium (catchweed bedstraw, Galium aparine); assay: Test A postemergence galium; conditions: 0 to 100 scale, 0 is no effect, 100 is complete control
Excerpt: as §1, §2

[6] = test system: foxtail, giant (giant foxtail, Setaria faberii); assay: Test A postemergence foxtail, giant; conditions: 0 to 100 scale, 0 is no effect, 100 is complete control
Excerpt: as §1, §2

[7] = test system: ducksalad (Heteranthera limosa); assay: Test B flooded paddy test ducksalad; conditions: Table B, Flood, scale 0 to 100
Method: as §3

[8] = test system: ragweed (common ragweed, Ambrosia elatior); assay: Test A postemergence ragweed; conditions: 0 to 100 scale, 0 is no effect, 100 is complete control
Excerpt: as §1, §2

[9] = test system: corn (Zea mays); assay: Test A postemergence corn; conditions: 0 to 100 scale, 0 is no effect, 100 is complete control
Excerpt: as §1, §2

[10] = test system: ragweed (common ragweed, Ambrosia elatior); assay: Test A preemergence ragweed; conditions: 0 to 100 scale, 0 no effect, 100 complete control
Excerpt: as §1, §2

[11] = test system: blackgrass (Alopecurus myosuroides); assay: Test A postemergence blackgrass; conditions: 0 to 100 scale, 0 is no effect, 100 is complete control
Excerpt: as §1, §2

[12] = test system: barnyardgrass (Echinochloa crus-galli); assay: Test A preemergence barnyardgrass; conditions: 0 to 100 scale, 0 no effect, 100 complete control
Excerpt: as §1, §2

[13] = test system: barnyardgrass (Echinochloa crus-galli); assay: Test A postemergence barnyardgrass; conditions: 0 to 100 scale, 0 is no effect, 100 is complete control
Excerpt: as §1, §2

[14] = test system: kochia (Kochia scoparia); assay: Test A postemergence kochia; conditions: 0 to 100 scale, 0 is no effect, 100 is complete control
Excerpt: as §1, §2

[15] = test system: foxtail, giant (giant foxtail, Setaria faberii); assay: Test A preemergence foxtail, giant; conditions: 0 to 100 scale, 0 no effect, 100 complete control
Excerpt: as §1, §2

[16] = test system: pigweed (Amaranthus retroflexus); assay: Test A preemergence pigweed; conditions: 0 to 100 scale, 0 no effect, 100 complete control
Excerpt: as §1, §2

[17] = test system: pigweed (Amaranthus retroflexus); assay: Test A postemergence pigweed; conditions: 0 to 100 scale, 0 is no effect, 100 is complete control
Excerpt: as §1, §2

[18] = test system: sedge, umbrella (small-flower umbrella sedge, Cyperus difformis); assay: Test B flooded paddy test sedge, umbrella; conditions: Table B, Flood, scale 0 to 100
Method: as §3

[19] = test system: barnyardgrass (Echinochloa crus-galli); assay: Test B flooded paddy test barnyardgrass; conditions: Table B, Flood, scale 0 to 100
Method: as §3

[20] = test system: ryegrass, Italian (Italian ryegrass, Lolium multiflorum); assay: Test A preemergence ryegrass, Italian; conditions: 0 to 100 scale, 0 no effect, 100 complete control
Excerpt: as §1, §2

Structure (SMILES)	Kochia plant response rating ([1]; 125 g ai/ha)	Kochia plant response rating ([1]; 500 g ai/ha)	Plant response rating, Wheat ([2]; 125 g ai/ha)	Plant response rating, Wheat ([2]; 500 g ai/ha)	Plant response rating, Ryegrass, Italian ([3]; 125 g ai/ha)	Plant response rating, Ryegrass, Italian ([3]; 500 g ai/ha)	Plant response rating, Galium ([5]; 125 g ai/ha)	Plant response rating, Galium ([5]; 500 g ai/ha)	Plant response rating, Foxtail, Giant ([6]; 125 g ai/ha)	Plant response rating, Foxtail, Giant ([6]; 500 g ai/ha)	Plant response rating, Ragweed ([8]; 125 g ai/ha)	Plant response rating, Ragweed ([8]; 500 g ai/ha)	Plant response rating, Corn ([9]; 125 g ai/ha)	Plant response rating, Corn ([9]; 500 g ai/ha)	Ragweed plant response rating ([10]; 125 g ai/ha)	Ragweed plant response rating ([10]; 500 g ai/ha)	Plant response rating, Blackgrass ([11]; 125 g ai/ha)	Plant response rating, Blackgrass ([11]; 500 g ai/ha)	Barnyardgrass plant response rating ([12]; 125 g ai/ha)	Barnyardgrass plant response rating ([12]; 500 g ai/ha)	further results
O=C1NCCC(c2cccc(OC(F)(F)F)c2)C1C(=O)Nc1ccccc1C(F)(F)F (racemic) [Compound 38]	0	0	0	0	0	0	0	0	0	60	0	0	0	0	0	0	0	0	30	80	Plant response rating ([4]; 250 g ai/ha): 0; Plant response rating ([7]; 250 g ai/ha): 85; Plant response rating, Barnyardgrass ([13]; 125 g ai/ha): 50; Plant response rating, Barnyardgrass ([13]; 500 g ai/ha): 70; Plant response rating, Kochia ([14]; 125 g ai/ha): 0; Plant response rating, Kochia ([14]; 500 g ai/ha): 0; Foxtail, Giant plant response rating ([15]; 125 g ai/ha): 50; Foxtail, Giant plant response rating ([15]; 500 g ai/ha): 80; Pigweed plant response rating ([16]; 125 g ai/ha): 0; Pigweed plant response rating ([16]; 500 g ai/ha): 0; Plant response rating, Pigweed ([17]; 125 g ai/ha): 0; Plant response rating, Pigweed ([17]; 500 g ai/ha): 0; Plant response rating ([18]; 250 g ai/ha): 0; Plant response rating ([19]; 250 g ai/ha): 35; Ryegrass, Italian plant response rating ([20]; 125 g ai/ha): 0; Ryegrass, Italian plant response rating ([20]; 500 g ai/ha): 0
O=C1NCCC(c2cccc(OC(F)(F)F)c2)C1C(=O)Nc1cccc(F)c1F (racemic) [Compound 39]	0	0	0	30	0	50	0	0	70	90	0	0	0	50	0	0	0	60	80	90	Plant response rating ([4]; 250 g ai/ha): 0; Plant response rating ([7]; 250 g ai/ha): 100; Plant response rating, Barnyardgrass ([13]; 125 g ai/ha): 80; Plant response rating, Barnyardgrass ([13]; 500 g ai/ha): 80; Plant response rating, Kochia ([14]; 125 g ai/ha): 0; Plant response rating, Kochia ([14]; 500 g ai/ha): 0; Foxtail, Giant plant response rating ([15]; 125 g ai/ha): 90; Foxtail, Giant plant response rating ([15]; 500 g ai/ha): 90; Pigweed plant response rating ([16]; 125 g ai/ha): 0; Pigweed plant response rating ([16]; 500 g ai/ha): 10; Plant response rating, Pigweed ([17]; 125 g ai/ha): 0; Plant response rating, Pigweed ([17]; 500 g ai/ha): 0; Plant response rating ([18]; 250 g ai/ha): 0; Plant response rating ([19]; 250 g ai/ha): 65; Ryegrass, Italian plant response rating ([20]; 125 g ai/ha): 30; Ryegrass, Italian plant response rating ([20]; 500 g ai/ha): 70
O=C1NCCC(c2cccc(OC(F)F)c2)C1C(=O)Nc1ccc(F)c(F)c1F (racemic) [Compound 44]	0	0	0	0	0	20	0	20	30	80	0	0	0	0	0	30	0	20	60	90	Plant response rating ([4]; 500 g ai/ha): 0; Plant response rating ([7]; 500 g ai/ha): 85; Plant response rating, Barnyardgrass ([13]; 125 g ai/ha): 20; Plant response rating, Barnyardgrass ([13]; 500 g ai/ha): 80; Plant response rating, Kochia ([14]; 125 g ai/ha): 0; Plant response rating, Kochia ([14]; 500 g ai/ha): 0; Foxtail, Giant plant response rating ([15]; 125 g ai/ha): 80; Foxtail, Giant plant response rating ([15]; 500 g ai/ha): 90; Pigweed plant response rating ([16]; 125 g ai/ha): 0; Pigweed plant response rating ([16]; 500 g ai/ha): 0; Plant response rating, Pigweed ([17]; 125 g ai/ha): 0; Plant response rating, Pigweed ([17]; 500 g ai/ha): 0; Plant response rating ([18]; 500 g ai/ha): 0; Plant response rating ([19]; 500 g ai/ha): 60; Ryegrass, Italian plant response rating ([20]; 125 g ai/ha): 0; Ryegrass, Italian plant response rating ([20]; 500 g ai/ha): 0
O=C1NCCC(c2cccc(OC(F)F)c2)C1C(=O)Nc1ccccc1F (racemic) [Compound 45]	0	0	0	0	0	0	0	0	0	50	0	0	0	0	0	0	0	20	20	70	Plant response rating ([4]; 500 g ai/ha): 0; Plant response rating ([7]; 500 g ai/ha): 50; Plant response rating, Barnyardgrass ([13]; 125 g ai/ha): 0; Plant response rating, Barnyardgrass ([13]; 500 g ai/ha): 60; Plant response rating, Kochia ([14]; 125 g ai/ha): 0; Plant response rating, Kochia ([14]; 500 g ai/ha): 0; Foxtail, Giant plant response rating ([15]; 125 g ai/ha): 40; Foxtail, Giant plant response rating ([15]; 500 g ai/ha): 80; Pigweed plant response rating ([16]; 125 g ai/ha): 0; Pigweed plant response rating ([16]; 500 g ai/ha): 0; Plant response rating, Pigweed ([17]; 125 g ai/ha): 0; Plant response rating, Pigweed ([17]; 500 g ai/ha): 0; Plant response rating ([18]; 500 g ai/ha): 0; Plant response rating ([19]; 500 g ai/ha): 0; Ryegrass, Italian plant response rating ([20]; 125 g ai/ha): 0; Ryegrass, Italian plant response rating ([20]; 500 g ai/ha): 0
O=C1NCCC(c2cccc(OC(F)F)c2)C1C(=O)Nc1cccc(F)c1F (racemic) [Compound 46]	0	0	0	50	0	0	0	0	20	80	0	0	0	50	0	0	0	40	50	90	Plant response rating ([4]; 500 g ai/ha): 0; Plant response rating ([7]; 500 g ai/ha): 100; Plant response rating, Barnyardgrass ([13]; 125 g ai/ha): 60; Plant response rating, Barnyardgrass ([13]; 500 g ai/ha): 90; Plant response rating, Kochia ([14]; 125 g ai/ha): 0; Plant response rating, Kochia ([14]; 500 g ai/ha): 0; Foxtail, Giant plant response rating ([15]; 125 g ai/ha): 90; Foxtail, Giant plant response rating ([15]; 500 g ai/ha): 90; Pigweed plant response rating ([16]; 125 g ai/ha): 0; Pigweed plant response rating ([16]; 500 g ai/ha): 0; Plant response rating, Pigweed ([17]; 125 g ai/ha): 0; Plant response rating, Pigweed ([17]; 500 g ai/ha): 0; Plant response rating ([18]; 500 g ai/ha): 0; Plant response rating ([19]; 500 g ai/ha): 65; Ryegrass, Italian plant response rating ([20]; 125 g ai/ha): 0; Ryegrass, Italian plant response rating ([20]; 500 g ai/ha): 20
